According to paper PMC10042772 (Targeted Oncology, 2023):

Legend:
[1] = system: MDA-MB-453 cells; experiment: CellTiter-Glo 2.0 viability assay, 10 days; assay type: cell-based, human; conditions: MDA-MB-453, 10 days of continuous exposure
[2] = system: CBP/p300 over BRD4; conditions: selective CBP/p300 binder; cited from earlier work
[3] = cited from earlier work

| SMILES | times less active than FT-6876 at inhibiting proliferation [1] [times] | selectivity over BRD4 and other BRD and BET family members [2] [fold] | microsomal stability [3] |
| --- | --- | --- | --- |
| CNC(=O)c1ccc(N2C(=S)N(c3ccc(C#N)c(C(F)(F)F)c3)C(=O)C2(C)C)cc1F [Enzalutamide, enzalutamide] | 45 | – | – |
| COc1ccc(CCc2nc3cc(-c4c(C)noc4C)ccc3n2C[C@H](C)N2CCOCC2)cc1Cl [SGC-CBP30] | – | 40 | poor microsomal stability |
